Data reported in ChEMBL document CHEMBL4842346, “Improving the metabolic stability of antifungal compounds based on a scaffold hopping strategy: Design, synthesis, and structure-activity relationship studies of dihydrooxazole derivatives” (Eur J Med Chem, 2021).
Values after ≈ are worked out from the molar mass of the structure shown.

Key:
[1] = Metabolic stability in human liver microsomes assessed as half life at 100 uM in the presence of NADPH measured upto 60 mins by LC-MS/MS analysis; type: ADME, Microsome
Cryptococcus neoformans [2] = experiment: Antifungal activity against Cryptococcus neoformans CGMCC2.3161 assessed as inhibition of fungal growth by NCCLS protocol based method; type: functional
Aspergillus fumigatus = experiment: Antifungal activity against Aspergillus fumigatus CGMCC3.7795 assessed as inhibition of fungal growth by NCCLS protocol based method; type: functional
Candida albicans [3] = experiment: Antifungal activity against Candida albicans CPCC400523 assessed as inhibition of fungal growth by NCCLS protocol based method; type: functional
Candida albicans [4] = experiment: Antifungal activity against Candida albicans SC5314 assessed as inhibition of fungal growth by NCCLS protocol based method; type: functional
Candida parapsilosis = experiment: Antifungal activity against Candida parapsilosis GIM2.190 assessed as inhibition of fungal growth by NCCLS protocol based method; type: functional; conditions: Lodderomyces parapsilosis
Candida tropicalis = experiment: Antifungal activity against Candida tropicalis GIM2.183 assessed as inhibition of fungal growth by NCCLS protocol based method; type: functional
Candida albicans [5] = experiment: Antifungal activity against Candida albicans GIM2.194 assessed as inhibition of fungal growth by NCCLS protocol based method; type: functional
Pichia kudriavzevii = experiment: Antifungal activity against Candida krusei GIM2.1 assessed as inhibition of fungal growth by NCCLS protocol based method; type: functional
Cryptococcus neoformans [6] = experiment: Antifungal activity against Cryptococcus neoformans GIM2.209 assessed as inhibition of fungal growth by NCCLS protocol based method; type: functional
Candida albicans [7] = experiment: Antifungal activity against fluconazole resistant Candida albicans CaR assessed as inhibition of fungal growth by NCCLS protocol based method; type: functional
Candida albicans [8] = experiment: Antifungal activity against fluconazole and itraconazole resistant Candida albicans 17# assessed as inhibition of fungal growth by NCCLS protocol based method; type: functional

SMILES	half-life at 100 µM [1]	MIC (Cryptococcus neoformans [2])	MIC (Aspergillus fumigatus)	MIC (Candida albicans [3])	MIC (Candida albicans [4])	MIC (Candida parapsilosis)	MIC (Candida tropicalis)	MIC (Candida albicans [5])	MIC (Pichia kudriavzevii)	MIC (Cryptococcus neoformans [6])	MIC (Candida albicans [7])	MIC (Candida albicans [8])
CC[C@H](C)[C@@H](Cn1ccnc1)NC(=O)c1ccc(-c2ccccc2)cc1F	3.6 min	1 µg/mL (≈ 2.74 µM)	2 µg/mL (≈ 5.47 µM)	< 0.03 µg/mL	< 0.03 µg/mL							
N#Cc1ccc(-c2ccc(C3=NC(Cn4cncn4)(c4ccccc4)CO3)cc2)cc1 (stereo unspecified)			> 64 µg/mL		> 16 µg/mL	> 64 µg/mL	> 16 µg/mL	> 16 µg/mL	> 64 µg/mL			
c1ccc(-c2ccc(C3=NC(Cn4ccnc4)C(c4ccccc4)O3)cc2)cc1 (stereo unspecified)			> 64 µg/mL		> 64 µg/mL		> 64 µg/mL	> 64 µg/mL		> 64 µg/mL		
Fc1ccccc1-c1ccc(C2=NC(Cn3cncn3)(c3ccc(Cl)cc3)CO2)cc1 (stereo unspecified)			> 64 µg/mL		< 0.03 µg/mL	4 µg/mL (≈ 9.24 µM)	0.06 µg/mL (≈ 0.139 µM)	< 0.03 µg/mL	0.25 µg/mL (≈ 0.578 µM)		0.25 µg/mL (≈ 0.578 µM)	> 64 µg/mL
FC(F)(F)Oc1ccc(-c2ccc(C3=NC(Cn4cncn4)(c4ccccc4)CO3)cc2)cc1 (stereo unspecified)			> 64 µg/mL		> 16 µg/mL	> 64 µg/mL	> 16 µg/mL	> 16 µg/mL	> 64 µg/mL			
Fc1cc(F)cc(C2(Cn3cncn3)COC(c3ccc(-c4ccccc4F)cc3)=N2)c1 (stereo unspecified)			> 64 µg/mL		0.06 µg/mL (≈ 0.138 µM)	> 64 µg/mL	> 16 µg/mL	> 16 µg/mL	> 64 µg/mL			
c1ccc(-c2ccc(C3=NC(Cn4cnnn4)(c4ccccc4)CO3)cc2)cc1 (stereo unspecified)			> 64 µg/mL		> 16 µg/mL	> 64 µg/mL	> 16 µg/mL	> 16 µg/mL	> 64 µg/mL			
Fc1cccc(-c2ccc(C3=NC(Cn4cncn4)(c4ccccc4)CO3)cc2)c1 (stereo unspecified)			> 64 µg/mL		< 0.03 µg/mL	16 µg/mL (≈ 40.2 µM)	0.06 µg/mL (≈ 0.151 µM)	< 0.03 µg/mL	< 0.125 µg/mL			
O=C(c1ccc(-c2ccccc2)cc1)N1CCC[C@@H]1Cn1ccnc1		> 64 µg/mL	> 64 µg/mL	> 64 µg/mL	> 64 µg/mL							
Fc1ccccc1-c1ccc(C2=NC(Cn3cncn3)(c3ccccc3)CO2)cc1 (stereo unspecified)			> 64 µg/mL		< 0.03 µg/mL	16 µg/mL (≈ 40.2 µM)	0.06 µg/mL (≈ 0.151 µM)	< 0.03 µg/mL	0.5 µg/mL (≈ 1.25 µM)			
Fc1cccc(-c2ccc(C3=NC(Cn4cncn4)(c4ccc(Cl)cc4)CO3)cc2)c1 (stereo unspecified)			> 64 µg/mL		< 0.03 µg/mL	4 µg/mL (≈ 9.24 µM)	0.06 µg/mL (≈ 0.139 µM)	< 0.03 µg/mL	0.25 µg/mL (≈ 0.578 µM)		0.25 µg/mL (≈ 0.578 µM)	> 64 µg/mL
c1ccc(-c2ccc(C3=NC(Cn4ccnc4)(c4ccccc4)CO3)cc2)cc1 (stereo unspecified)	106 min		1 µg/mL (≈ 2.64 µM)		< 0.125 µg/mL		< 0.125 µg/mL	< 0.125 µg/mL		32 µg/mL (≈ 84.3 µM)		
Fc1ccc(-c2ccc(C3=NC(Cn4cncn4)(c4ccccc4)CO3)cc2)cc1 (stereo unspecified)			> 64 µg/mL		0.25 µg/mL (≈ 0.627 µM)	> 64 µg/mL	8 µg/mL (≈ 20.1 µM)	> 16 µg/mL	> 64 µg/mL			
FC(F)(F)c1ccc(-c2ccc(C3=NC(Cn4cncn4)(c4ccccc4)CO3)cc2)cc1 (stereo unspecified)			> 64 µg/mL		> 16 µg/mL	> 64 µg/mL	> 16 µg/mL	> 16 µg/mL	> 64 µg/mL			
c1ccc(-c2ccc(C3=NC(Cn4cncn4)(c4ccccc4)CO3)cc2)cc1 (stereo unspecified)			2 µg/mL (≈ 5.26 µM)		< 0.03 µg/mL	0.25 µg/mL (≈ 0.657 µM)	0.06 µg/mL (≈ 0.158 µM)	< 0.03 µg/mL	0.25 µg/mL (≈ 0.657 µM)			
CC(C)(O)C(Cn1ccnc1)NC(=O)c1ccc(-c2ccccc2)cc1 (stereo unspecified)		> 64 µg/mL	> 64 µg/mL	> 64 µg/mL	8 µg/mL (≈ 22.9 µM)							
Fc1cccc(-c2ccc(C3=NC(Cn4cncn4)(c4cccc(F)c4)CO3)cc2)c1 (stereo unspecified)			> 64 µg/mL		0.06 µg/mL (≈ 0.144 µM)	> 64 µg/mL	0.25 µg/mL (≈ 0.6 µM)	0.06 µg/mL (≈ 0.144 µM)	> 64 µg/mL		> 64 µg/mL	> 64 µg/mL
Fc1ccc(C2(Cn3cncn3)COC(c3ccc(-c4ccccc4F)cc3)=N2)c(F)c1 (stereo unspecified)			> 64 µg/mL		< 0.03 µg/mL	4 µg/mL (≈ 9.21 µM)	0.06 µg/mL (≈ 0.138 µM)	0.06 µg/mL (≈ 0.138 µM)	0.25 µg/mL (≈ 0.575 µM)		0.5 µg/mL (≈ 1.15 µM)	> 64 µg/mL
c1ccc(-c2ccc(C3=N[C@@H](Cn4ccnc4)CO3)cc2)cc1	23.2 min	> 64 µg/mL	1 µg/mL (≈ 3.3 µM)	8 µg/mL (≈ 26.4 µM)	1 µg/mL (≈ 3.3 µM)							
Fc1cccc(-c2ccc(C3=NC(Cn4cncn4)(c4cc(F)cc(F)c4)CO3)cc2)c1 (stereo unspecified)			> 64 µg/mL		0.06 µg/mL (≈ 0.138 µM)	> 64 µg/mL	> 16 µg/mL	> 16 µg/mL	> 64 µg/mL			
